This is an account of results in patent US9670227B2, “Thienopyrimidine derivatives, a process for their preparation and pharmaceutical compositions containing them” (LES LABORATOIRES SERVIER, priority 2013, dated 2017).

The target of one test is Mcl-1 protein (UniProtKB primary accession number: Q07820) (Homo sapiens, UniProt Q07820). Put plainly: Inhibition of Mcl-1 by fluorescence polarisation, Method 1. To be noted: read-out: IC50 (M) Mcl-1 FP. It counts as binding. The essentials: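 Buffer of 10 mM HEPES pH 7.4 with 150 mM NaCl and 0.05% Tween 20 held 5 nM Mcl-1 and 1 nM fluorescein-tagged ligand (final). Compounds were tested as 11-point serial dilutions at 5% final DMSO, and binding was read by FP.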

Test [1] concerns H929 multiple myeloma tumour line. Put plainly: In vitro cytotoxicity, Microculture Tetrazolium Assay. It counts as cell-based. The conditions noted are these: H929 cells, 48 hours exposure, read-out: IC50 (μM) MTT H929. The method, then:
The cytotoxicity studies were carried out on the H929 multiple myeloma tumour line.
The cells are distributed onto microplates and exposed to the test compounds for 48 hours.

[2] abbreviates: fluorescence polarisation, Method 1, or Method 2.
[3] abbreviates: Homo sapiens, NCI-H929, 48 h, MTT.
Setting [4] is: fluorescence polarisation test, Method 2 values are underlined in the patent (underlining not visible here).

Like-named read-outs stand apart in the source and are kept apart here.

Mcl-1 protein, sequence (Q07820 whole entry): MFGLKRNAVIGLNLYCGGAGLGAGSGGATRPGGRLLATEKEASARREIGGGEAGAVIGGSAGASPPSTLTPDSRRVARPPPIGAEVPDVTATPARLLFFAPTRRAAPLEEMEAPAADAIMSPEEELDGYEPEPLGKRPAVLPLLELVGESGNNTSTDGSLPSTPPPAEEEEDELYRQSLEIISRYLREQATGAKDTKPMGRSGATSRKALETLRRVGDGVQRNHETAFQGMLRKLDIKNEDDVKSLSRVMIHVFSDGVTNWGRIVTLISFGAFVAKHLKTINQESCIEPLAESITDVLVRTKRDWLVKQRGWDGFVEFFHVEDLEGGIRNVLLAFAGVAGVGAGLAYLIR

In the case of `COc1ccccc1-c1nccc(COc2ccccc2CC(Oc2ncnc3sc(-c4ccc(OCc5cccnc5)cc4)c(-c4ccc(OCCN5CCN(C)CC5)c(Cl)c4C)c23)C(=O)O)n1` [Example 772, (2R)-2-[((5Sa)-5-{3-chloro-2-methyl-4-[2-(4-methylpiperazin-1-yl)ethoxy]phenyl}-6-[4-(pyridin-3-ylmethoxy)phenyl]thieno[2,3-d]pyrimidin-4-yl)oxy]-3-(2-{[2-(2-methoxyphenyl)pyrimidin-4-yl]methoxy}phenyl)propanoic acid], the IC50 (usually the concentration that inhibits the measured activity by half) on Mcl-1 protein (setting [2]) amounted to 9.48e-10 M; in test [1] (setting [3]) it was 0.01 µM.

On to `CCc1sc2ncnc(OC(Cc3ccccc3OCc3ccnn3CC)C(=O)O)c2c1-c1ccc(OCCN2CCN(C)CC2)c(Cl)c1C` [Example 456, (2R)-2-[((5Sa)-5-{3-chloro-2-methyl-4-[2-(4-methylpiperazin-1-yl)ethoxy]phenyl}-6-ethylthieno[2,3-d]pyrimidin-4-yl)oxy]-3-{2-[(1-ethyl-1H-pyrazol-5-yl)methoxy]phenyl}propanoic acid], for which the results for the IC50 (on Mcl-1 protein (setting [2]); in test [1] (setting [3])) were 8e-09 M and 0.513 µM, respectively.

As to `COc1ccccc1CC(Oc1ncnc2sc(-c3ccc(F)cc3)c(-c3ccc(OCCN4CCN(C)CC4)c(Br)c3C)c12)C(=O)O` [Example 646, (2R)-2-{[(5Sa)-5-{3-bromo-2-methyl-4-[2-(4-methylpiperazin-1-yl)ethoxy]phenyl}-6-(4-fluorophenyl)thieno[2,3-d]pyrimidin-4-yl]oxy}-3-(2-methoxyphenyl)propanoic acid], the IC50 at Mcl-1 protein (setting [2]) was 2.1e-08 M; in test [1] (setting [3]), 0.298 µM.

As to `C=Cc1ccc(-c2sc3ncnc(OC(Cc4ccccc4OC)C(=O)O)c3c2-c2ccc(OCCN3CCN(C)CC3)c(Cl)c2C)o1` [Example 584, (2R)-2-{[(5Sa)-5-{3-chloro-2-methyl-4-[2-(4-methylpiperazin-1-yl)ethoxy]phenyl}-6-(5-ethenylfuran-2-yl)thieno[2,3-d]pyrimidin-4-yl]oxy}-3-(2-methoxyphenyl)propanoic acid], the values for the IC50 (on Mcl-1 protein (setting [2]); in test [1] (setting [3])) were 2.9e-08 M and 0.902 µM, respectively.

Take `COc1cccc(CC(Oc2ncnc3sc(-c4ccco4)c(-c4ccc(OCCN5CCN(C)CC5)c(Cl)c4C)c23)C(=O)O)c1` [Example 349, (2R)-2-{[(5Sa)-5-{3-chloro-2-methyl-4-[2-(4-methylpiperazin-1-yl)ethoxy]phenyl}-6-(furan-2-yl)thieno[2,3-d]pyrimidin-4-yl]oxy}-3-(3-methoxyphenyl)propanoic acid]: the IC50 worked out at 2.7e-08 M at Mcl-1 protein (setting [4]) and 2.46 µM in test [1] (setting [3]).

In the case of `Cc1c(-c2c(-c3ccc(Cl)o3)sc3ncnc(OC(Cc4ccccc4OCc4ccnn4C)C(=O)O)c23)ccc(OCCN2CCN(C)CC2)c1Cl` [Example 371, (2R)-2-{[6-(5-chlorofuran-2-yl)-(5Sa)-5-{3-chloro-2-methyl-4-[2-(4-methylpiperazin-1-yl)ethoxy]phenyl}thieno[2,3-d]pyrimidin-4-yl]oxy}-3-{2-[(1-methyl-1H-pyrazol-5-yl)methoxy]phenyl}propanoic acid], the IC50 stood at 5.6e-09 M at Mcl-1 protein (setting [4]) and 0.027 µM in test [1] (setting [3]).

For `CNc1nccc(COc2ccccc2CC(Oc2ncnc3sc(-c4ccco4)c(-c4ccc(OCCN5CCN(C)CC5)c(Cl)c4C)c23)C(=O)O)n1` [Example 253, (2R)-2-{[(5Sa)-5-{3-chloro-2-methyl-4-[2-(4-methylpiperazin-1-yl)ethoxy]phenyl}-6-(furan-2-yl)thieno[2,3-d]pyrimidin-4-yl]oxy}-3-(2-{[2-(methylamino)pyrimidin-4-yl]methoxy}phenyl)propanoic acid], the 50% inhibitory concentration (IC50) came out at 3.1e-09 M at Mcl-1 protein (setting [4]) and 0.041 µM in test [1] (setting [3]).

Turning to `Cc1c(-c2c(-c3ccc(F)cc3)sc3ncnc(OC(Cc4ccccc4OCc4cnnn4-c4ccccc4)C(=O)O)c23)ccc(OCCN2CCN(C)CC2)c1Cl` [Example 94, (2R)-2-{[(5Sa)-5-{3-chloro-2-methyl-4-[2-(4-methylpiperazin-1-yl)ethoxy]phenyl}-6-(4-fluorophenyl)thieno[2,3-d]pyrimidin-4-yl]oxy}-3-{2-[(1-phenyl-1H-1,2,3-triazol-5-yl)methoxy]phenyl}propanoic acid], the IC50 at Mcl-1 protein (setting [4]) worked out at 1.9e-09 M; in test [1] (setting [3]), 0.085 µM.

For `CCc1sc2ncnc(OC(Cc3ccccc3)C(=O)O)c2c1-c1ccc(OCCNC(C)=O)c(Cl)c1C` [Example 422, (2R)-2-[((5Sa)-5-{4-[2-(acetylamino)ethoxy]-3-chloro-2-methylphenyl}-6-ethylthieno[2,3-d]pyrimidin-4-yl)oxy]-3-phenylpropanoic acid], the IC50 worked out at 1.4e-08 M at Mcl-1 protein (setting [2]) and 14.4 µM in test [1] (setting [3]).

As to `COc1ccccc1CC(Oc1ncnc2sc(-c3ccco3)c(-c3ccc(OCC4CCN(C)C4)c(Cl)c3C)c12)C(=O)O` [Example 310, (2R)-2-{[(5Sa)-5-{3-chloro-2-methyl-4-[(1-methylpyrrolidin-3-yl)methoxy]phenyl}-6-(furan-2-yl)thieno[2,3-d]pyrimidin-4-yl]oxy}-3-(2-methoxyphenyl)propanoic acid], the figures for the half-inhibitory concentration (IC50) (on Mcl-1 protein (setting [4]); in test [1] (setting [3])) were 1.4e-08 M and 0.26 µM, respectively.

`Cc1cccc(C[C@@H](Oc2ncnc3sc(-c4ccco4)c(-c4ccc(OCCN5CCN(C)CC5)c(Cl)c4C)c23)C(=O)O)c1` [Example 347, (2R)-2-{[(5Sa)-5-{3-chloro-2-methyl-4-[2-(4-methylpiperazin-1-yl)ethoxy]phenyl}-6-(furan-2-yl)thieno[2,3-d]pyrimidin-4-yl]oxy}-3-(3-methylphenyl)propanoic acid]: the IC50 on Mcl-1 protein (setting [4]) was 1.4e-08 M; in test [1] (MTT), 0.25 µM.

Consider `Cc1c(-c2c(-c3ccc(F)nc3)sc3ncnc(OC(Cc4ccccc4OCc4ccnn4CC(F)(F)F)C(=O)O)c23)ccc(OCCN2CCN(C)CC2)c1Cl` [Example 693, (2R)-2-{[(5Sa)-5-{3-chloro-2-methyl-4-[2-(4-methylpiperazin-1-yl)ethoxy]phenyl}-6-(6-fluoropyridin-3-yl)thieno[2,3-d]pyrimidin-4-yl]oxy}-3-(2-{[1-(2,2,2-trifluoroethyl)-1H-pyrazol-5-yl]methoxy}phenyl)propanoic acid], for which the IC50 on Mcl-1 protein (setting [2]) came out at 9.3e-10 M; in test [1] (setting [3]) it was 0.101 µM.

On to `COc1ccccc1-c1nccc(COc2ccccc2CC(Oc2ncnc3sc(-c4ccc(OCc5ccc(Cl)cc5)cc4)c(-c4ccc(OCCN5CCN(C)CC5)c(Cl)c4C)c23)C(=O)O)n1` [Example 775, (2R)-2-[(6-{4-[(4-chlorobenzyl)oxy]phenyl}-(5Sa)-5-{3-chloro-2-methyl-4-[2-(4-methylpiperazin-1-yl)ethoxy]phenyl}thieno[2,3-d]pyrimidin-4-yl)oxy]-3-(2-{[2-(2-methoxyphenyl)pyrimidin-4-yl]methoxy}phenyl)propanoic acid], for which the IC50 at Mcl-1 protein (setting [2]) was 3.55e-09 M; in test [1] (setting [3]), 0.039 µM.

As to `Cc1cc(COc2ccccc2CC(Oc2ncnc3sc(-c4ccc(F)cc4)c(-c4ccc(OCCN5CCN(C)CC5)c(Cl)c4C)c23)C(=O)O)no1` [Example 9, (2R)-2-{[(5Sa)-5-{3-chloro-2-methyl-4-[2-(4-methylpiperazin-1-yl)ethoxy]phenyl}-6-(4-fluorophenyl)thieno[2,3-d]pyrimidin-4-yl]oxy}-3-{2-[(5-methyl-1,2-oxazol-3-yl)methoxy]phenyl}propanoic acid], the IC50 at Mcl-1 protein (setting [4]) stood at 9.3e-09 M; in test [1] (setting [3]), 0.363 µM.

Take `Cc1c(-c2c(-c3ccco3)sc3ncnc(OC(Cc4ccccc4OCc4cn(C)cn4)C(=O)O)c23)ccc(OCCN2CCN(C)CC2)c1Cl` [Example 267, (2R)-2-{[(5Sa)-5-{3-chloro-2-methyl-4-[2-(4-methylpiperazin-1-yl)ethoxy]phenyl}-6-(furan-2-yl)thieno[2,3-d]pyrimidin-4-yl]oxy}-3-{2-[(1-methyl-1H-imidazol-4-yl)methoxy]phenyl}propanoic acid]: the IC50 at Mcl-1 protein (setting [4]) came to 8.8e-09 M; in test [1] (setting [3]) it was 1.6 µM.

For the compound `Cc1c(-c2c(-c3ccco3)sc3ncnc(OC(Cc4ccccc4OCc4cc(-c5ccco5)nn4C)C(=O)O)c23)ccc(OCCN2CCN(C)CC2)c1Cl` [Example 228, (2R)-2-{[(5Sa)-5-{3-chloro-2-methyl-4-[2-(4-methylpiperazin-1-yl)ethoxy]phenyl}-6-(furan-2-yl)thieno[2,3-d]pyrimidin-4-yl]oxy}-3-(2-{[3-(furan-2-yl)-1-methyl-1H-pyrazol-5-yl]methoxy}phenyl)propanoic acid], the IC50 at Mcl-1 protein (setting [4]) was 2.2e-08 M; in test [1] (setting [3]), 0.166 µM.

As for `COc1ccccc1-c1nccc(COc2ccccc2CC(Oc2ncnc3sc(-c4ccccc4F)c(-c4ccc(OCCN5CCN(C)CC5)c(Cl)c4C)c23)C(=O)O)n1` [Example 835, (2R)-2-{[(5Sa)-5-{3-chloro-2-methyl-4-[2-(4-methylpiperazin-1-yl)ethoxy]phenyl}-6-(2-fluorophenyl)thieno[2,3-d]pyrimidin-4-yl]oxy}-3-(2-{[2-(2-methoxyphenyl)pyrimidin-4-yl]methoxy}phenyl)propanoic acid], the 50% inhibitory concentration (IC50) at Mcl-1 protein (fluorescence polarisation test, Method 1, or Method 2 where the value is underlined (underlining not visible)) turned out to be 2.9e-09 M; in test [1] (Homo sapiens, NCI-H929, 48 h, cell viability), 0.002 µM.

`COc1ncc(COc2ccccc2CC(Oc2ncnc3sc(-c4ccco4)c(-c4ccc(OCCN5CCN(C)CC5)c(Cl)c4C)c23)C(=O)O)cn1` [Example 274, (2R)-2-{[(5Sa)-5-{3-chloro-2-methyl-4-[2-(4-methylpiperazin-1-yl)ethoxy]phenyl}-6-(furan-2-yl)thieno[2,3-d]pyrimidin-4-yl]oxy}-3-{2-[(2-methoxypyrimidin-5-yl)methoxy]phenyl}propanoic acid]: the 50% inhibitory concentration (IC50) is 7.7e-09 M at Mcl-1 protein (setting [4]) and 0.131 µM in test [1] (setting [3]).
